Data as given in patent publication US20150143553A1, “Methods And Compositions Comprising A Drosophila Model Of Amyotrophic Lateral Sclerosis” (priority 2013, published 2015).
Where a name gives a salt, the structure may show the parent alone.

System: Drosophila larvae expressing wild-type TDP-43 in motor neurons
Experiment: Drug screen: rescue of lethality caused by wild-type TDP-43 expression in motor neurons (D42 Gal4)
Type: in vivo
Settings: transgene WT2
Text: […] Larvae expressing TDP-43 (wild type or mutant, as shown) are raised on drug containing food.
[…] Larvae expressing TDP-43 (wt or mutant) were raised on drug containing food.
Using a Drosophila model of ALS based on TDP-43 that recapitulates several aspects of the disease pathophysiology (33, 35), a drug screen aimed at identifying FDA approved compounds with neuroprotective potential in vivo were designed (FIG. 37A). […] This phenotype was used to screen for drug candidates with therapeutic potential as determined by their ability to rescue pupal lethality and produce viable adults with extended wings (FIG. 37A). […]
UAS TDP-43 males were crossed with D42-Gal4 female virgins on fly food containing either DMSO or pioglitazone. For DMSO controls, the same volume of DMSO as the corresponding drug concentration was added. Bromophenol blue was added to a final concentration of approximately 0.02% to ensure homogeneity. Crosses were made on drug food with 3 female virgins and 2 males in each vial, and were maintained at 25° C. unless noted. The parents were discarded after 5-7 days then the vials were screened for adult progeny with straight wings from day 14 to day 25. All adults were screened for TDP-43 expression by visualizing the YFP tag. Total number of pupae was counted on day 25. Percent survival was calculated using the formula (total number of straight-winged adults/total number of pupae)×100. All experiments were performed in triplicate.

Compound	Preliminary rescue result: adults with normal wings (30 μM in fly food)	Preliminary rescue result: adults with normal wings (50 μM in fly food)
CCOC(=O)O[C@]1(C(=O)COC(=O)CC)CC[C@H]2[C@@H]3CCC4=CC(=O)C=C[C@]4(C)[C@H]3[C@@H](O)C[C@@]21C [Prednicarbate]	2 Adult Normal Wings Adults	
Nc1cc(-c2ccncc2)c[nH]c1=O [Amrinone]	1 Adult Normal Wings Adults	
C[C@H](CCC(=O)O)[C@H]1CC[C@H]2[C@@H]3CC[C@@H]4C[C@H](O)CC[C@]4(C)[C@H]3CC[C@]12C [Lithocholic Acid]	7 Adult Normal Wings Adults	
NC(=O)C(c1ccccc1)(c1ccccc1)[C@@H]1CCN(CCc2ccc3c(c2)CCO3)C1 [Darifenacin Hydrobromide]	3 Adult Normal Wings Adults	
COC(=O)N/N=C/c1c[n+]([O-])c2ccccc2[n+]1[O-] [Carbadox]		1 Adult Normal Wings Adults
CC(NCCc1ccc(O)cc1)C(O)c1ccc(O)cc1 (stereo not drawn) [Ritodrine]		2 Adults Normal Wings
CN1CCN(C(c2ccccc2)c2ccccc2)CC1 [Cyclizine Hcl]		1 Adult Normal Wings Adults
CC(C(=O)O)c1cccc(C(=O)c2ccccc2)c1 (stereo not drawn) [Ketoprofen]		1 Adult Normal Wings Adults
Carbinoxamine Maleate Salt	1 Adult Normal Wings Adults	
CCCCC(=O)O[C@H]1CC[C@H]2[C@@H]3CCc4cc(O)ccc4[C@H]3CC[C@]12C [Estradiol Valerate]	1 Adult Normal Wings Adults	
C#C[C@]1(O)CC[C@H]2[C@@H]3CCc4cc(OC)ccc4[C@H]3CC[C@@]21C [Ethynyletradiol 3-Methyl Ether]	5 Adult Normal Wings Adults	
CN(C)C(=O)Oc1cccc([N+](C)(C)C)c1 [Neostigmine Bromide]		5 Adults Straight Wings
COC(c1ccccc1)(c1ccccc1)[C@H](Oc1nc(C)cc(C)n1)C(=O)O [Amrisentan]		1 Adult Normal Wings Adults
Cc1noc(NS(=O)(=O)c2ccc(N)cc2)c1C [Sulfisoxazole]		1 Adult Normal Wings Adults
CC1(C)[C@H](C(=O)O)N2C(=O)C[C@H]2S1(=O)=O [Sulbactam]	1 Adult Normal Wings Adults	
CNC(=C[N+](=O)[O-])NCCSCc1csc(CN(C)C)n1 [Nizatidine]	2 Adult Normal Wings Adults	
C[C@H](CCC(=O)O)[C@H]1CC[C@H]2[C@@H]3[C@@H](O)C[C@@H]4C[C@H](O)CC[C@]4(C)[C@H]3CC[C@]12C [Urosiol]	2 Adult Normal Wings Adults	
C[N+]1(C)[C@@H]2CC[C@H]1C[C@@H](OC(=O)C(CO)c1ccccc1)C2 (stereo partly drawn) [Methylatropine Nitrate]	2 Adult Normal Wings Adults	
CCC(=O)O[C@@](Cc1ccccc1)(c1ccccc1)[C@@H](C)CN(C)C [Levopropoxyphene Napsylate]	2 Adult Normal Wings Adults	

Compound	Preliminary rescue result: adults with normal wings (30 μM in fly food)	Preliminary rescue result: adults with normal wings (50 μM in fly food)
CCCCCCCCNC(C)C(O)c1ccc(SC(C)C)cc1 (stereo not drawn) [Suloctidil]		6 Adults Normal Wings
C=CCC1(CC(C)C)C(=O)NC(=O)NC1=O [Butalbital]		1 Adult Normal Wings Adults
O=C1c2c(O)cccc2Cc2cccc(O)c21 [Anthralin]		1 Adult Normal Wings Adults
CCOC(=O)[C@H](CCc1ccccc1)N[C@@H](C)C(=O)N1Cc2ccccc2C[C@H]1C(=O)O [Quinapril Hcl]	2 Adult Normal Wings Adults	
CCCCC(CC)CNC(=N)NC(=N)NCCCCCCNC(=N)NC(=N)NCC(CC)CCCC (stereo not drawn) [Alexidine Dihydrochloride]	6 Adults Normal Wings	
NS(=O)(=O)c1cc2c(cc1Cl)NC(CC1CCCC1)NS2(=O)=O (stereo not drawn) [Cyclopenthiazide]	1 Adult Normal Wings Adults	
Cn1nnnc1SCC1=C(C(=O)[O-])N2C(=O)[C@@H](NC(=O)[C@H](O)c3ccccc3)[C@H]2SC1.[Na+] [Cefamandole Na Salt]	2/3 Adult Normal Wing	
COc1ccc2cc([C@@H](C)C(=O)[O-])ccc2c1.[Na+] [R-Naproxen Na Salt]	2 Adult Normal Wings Adults	
Cc1nc2n(c(=O)c1CCN1CCC(c3noc4cc(F)ccc34)CC1)CCCC2 [Risperidone]	1 Adult Normal Wing Adults	
CCCNC(C)(C)COC(=O)c1ccccc1 [Meprylcaine HCl]	1 Adult Normal Wings Adults	
CCCc1nc(C)c2c(=O)[nH]c(-c3cc(S(=O)(=O)N4CCN(CC)CC4)ccc3OCC)nn12 [Vardenafil]		3 Adult Normal Wings Adults
OC(Cn1cncn1)(Cn1cncn1)c1ccc(F)cc1F [Fluconazole]		1 Adult Normal Wings Adults
COc1cc(-c2ccc(=O)[nH]n2)ccc1OC(F)F [Zardaverine]	1 Adult Normal Wings Adults	
COc1cc([C@@H]2c3cc4c(cc3[C@H](O)[C@H]3COC(=O)[C@H]23)OCO4)cc(OC)c1OC [Podophyllotoxin]	8 Adult Normal Wings Adults	
O=S(=O)(O)CCS [Mesna]		4 Adult Normal Wings Adults
C#CCN(C)Cc1ccccc1 [Pargyline Hydrochloride]		1 Adult Normal Wings Adults
COc1ccccc1OCCNCC(O)COc1cccc2[nH]c3ccccc3c12 (stereo not drawn) [Carvedilol]	1 Adult Normal Wings Adults	
O=C1NCCN1c1ncc([N+](=O)[O-])s1 [Niridazole]		3 Adult Normal Wings Adults
CCCCOc1cc(C(=O)NCCN(CC)CC)c2ccccc2n1 [Dibucaine]		1 Adult Normal Wings Adults

Compound	Preliminary rescue result: adults with normal wings (30 μM in fly food)	Preliminary rescue result: adults with normal wings (50 μM in fly food)
CNCCCC1c2ccccc2C=Cc2ccccc21 [Protriptyline Hydrochloride]	1 Adult Normal Wings Adults	
COc1ccc(C(=O)c2ccccc2O)c(O)c1 [Dioxybenzone]	14 Adult Normal Wings Adults	
COCCOC(=O)C1=C(C)NC(C)=C(C(=O)OC/C=C/c2ccccc2)C1c1cccc([N+](=O)[O-])c1 (stereo not drawn) [Cilnidipine]	2 Adult Normal Wings Adults	
CCCOc1cc(N)ccc1C(=O)OCCN(CC)CC [Propoxycaine Hcl]	1 Adult Normal Wings Adults	
CN[C@@H]1[C@@H](O)[C@@H](O[C@@H]2[C@@H](O)[C@H](O[C@H]3OC(CN)=CC[C@H]3N)[C@@H](N)C[C@H]2N)OC[C@]1(C)O [Sisomicin Sulfate]		1 Adult Normal Wings Adults
Clc1ccc(C(OCCN2CCCCC2)c2ccccc2)cc1 (stereo not drawn) [Cloperastine HCl]	1 Adult Normal Wings Adults	
CN(C)CCOc1ccc(/C(=C(/CCCl)c2ccccc2)c2ccccc2)cc1 [Toremifene]	1 Adult Normal Wings Adults	
COc1cc2nc(N3CCN(C(=O)c4ccco4)CC3)nc(N)c2cc1OC [Prazosin Hydrochloride]	1 Adult Normal Wings Adults	
O=C(O)Cc1ccc(-c2ccccc2)cc1 [Felbinac]	1 Adult Normal Wings Adults	
COc1cc(NC(C)CCCN)c2ncccc2c1 (stereo not drawn) [Primaquine Diphosphate]		1 Adult Normal Wings Adults
CC[C@H]1OC(=O)[C@H](C)[C@@H](O[C@H]2C[C@@](C)(OC)[C@@H](O)[C@H](C)O2)[C@H](C)[C@@H](O[C@@H]2O[C@H](C)C[C@H](N(C)C)[C@H]2O)[C@](C)(O)C[C@@H](C)CN(C)[C@H](C)[C@@H](O)[C@]1(C)O [Azithromycin]	1 Adult Normal Wings Adults	
CC(C)(C(=O)O)c1ccc(C(O)CCCN2CCC(C(O)(c3ccccc3)c3ccccc3)CC2)cc1 (stereo not drawn) [Fexofenadine Hcl]	1 Adult Normal Wings Adults	
CCN1CCC[C@H]1CNC(=O)c1c(O)c(Cl)cc(Cl)c1OC [Raclopride]		2 Adults Normal Wings
C=CCOc1ccccc1OCC(O)CNC(C)C (stereo not drawn) [Oxprenolol Hcl]	1 Adult Normal Wings Adults	
CC1CC(OC(=O)C(O)c2ccccc2)CC(C)(C)N1C (stereo not drawn) [Eucatropine HCl]	1 Adult Normal Wings Adults	
CCCc1cc(C(N)=S)ccn1 [Prothionamide]	1 Adult Normal Wings Adults	
CC(=O)N[C@@H](CC(C)C)C(=O)O [N-Acetyl-L-Leucine]	1 Adult Normal Wings Adults	
CC(C)c1c(C(=O)Nc2ccccc2)c(-c2ccccc2)c(-c2ccc(F)cc2)n1CC[C@@H](O)C[C@@H](O)CC(=O)O [Atorvastatin]	1 Adult Normal Wings Adults	
COCC(=O)Nc1c(I)c(C(=O)NCC(O)CO)c(I)c(C(=O)N(C)CC(O)CO)c1I (stereo not drawn) [Iopromide]	1 Adult Normal Wings Adults	
